Tested on: bladder, breast, head and neck, ovarian and prostate tumors from human patients
Test: Paclitaxel in histocultures of tumors obtained from human patients
Format: cell-based
Conditions: 96 tumors; bladder 2 hours, remaining tumors 96 hours
Description: The third study examined the relationship between the levels of aFGF and bFGF in human tumors and tumor sensitivity to anticancer agents. This study was performed using 96 tumors obtained from human patients, including include bladder, breast, head and neck, ovarian and prostate tumors. Paclitaxel was used as the model drug. […] The drug-induced antiproliferation was measured by inhibition of DNA precursor incorporation, and apoptosis was measured by morphological changes and by labeling of nicked DNA. aFGF, bFGF and other proteins known to contribute to drug resistance (i.e. the mdr1 p-glycoprotein, p53 and bcl-2) were detected by immunohistochemical staining.

CC(=O)O[C@H]1C(=O)[C@@]2(C)[C@H]([C@H](OC(=O)c3ccccc3)[C@]3(O)C[C@H](OC(=O)[C@H](O)[C@@H](NC(=O)c4ccccc4)c4ccccc4)C(C)=C1C3(C)C)[C@]1(OC(C)=O)CO[C@@H]1C[C@@H]2O [Paclitaxel] was tested, and the “tumors in which antiproliferation was produced” value was 84% and the “tumors in which apoptosis was induced” value was 96%.

Source: patent publication US20040010001A1, “Methods and compositions for modulating cell proliferation and cell death” (priority 1999, published 2004)
